tested on: P. falciparum 3D7 growth, pLDH absorbance; assay: blood-stage malaria parasite growth potency – strain 3D7, dose response (AID 2305)

Q: With `ON=C1c2cc(OCCN3CCCCC3)c(Cl)cc2-c2cc(Cl)c(OCCN3CCCCC3)cc21` as the compound, how does the IC50 read?
A: Its IC50 is 0.7 µM.

Q: Which IC50 does the source give for `CC(C)CNCc1cccc(-c2cccc(CNC3CCN(Cc4ccccc4)CC3)c2)c1` here?
A: The IC50 was 0.18 µM.

Q: Which IC50 does the source give for `CC(C)n1ncc2c(C(=O)N3CCCc4ccccc43)cc(-c3ccccc3)nc21` here?
A: Its IC50 is 0.6 µM.

Q: `c1cncc(-c2cc(N3CCCCC3)nc(-c3ccncc3)n2)c1` was tested. Which IC50 did it give?
A: Its IC50 is 0.77 µM.

Q: `O=C(CCCCCNC(=O)c1ccc(O)c(-c2ccc(Cl)c(Cl)c2)c1)NCc1cccc(C(F)(F)F)c1` was tested. Which IC50 did it give?
A: Its IC50 is 0.73 µM.

Q: How did the IC50 turn out when `CCCC(C)Nc1nc(C)cc(N[C@@H](CC(C)C)C(=O)NC2CCCC2)n1` (stereo not given in full) was run?
A: Its IC50 is 1.08 µM.

Q: For `CNC(=O)C(C)N(c1ccc(Cl)cc1)c1nc(C(C)(C)C)cs1` (stereo not given), which IC50 is on record?
A: The IC50 was 0.74 µM.

Q: `CCCCNc1c(CC)c(C)c(C#N)c2nc3ccccc3n12` was tested. Which IC50 did it give?
A: The IC50 was 0.38 µM.

Q: How did the IC50 turn out when `CCN(CC)C(=NCCCCCCN=C(NC(N)=NCc1cccc(Cl)c1)N(CC)CC)NC(N)=NCc1cccc(Cl)c1` was run?
A: Its IC50 is 0.21 µM.

Q: `CCCCCCCNc1cc(C)nc2ccc(OC)cc12` was tested. Which IC50 did it give?
A: Its IC50 is 0.67 µM.

Q: How did the IC50 turn out when `CC(C)C(=O)ONC1=NC(C)(C)N(OCCCOc2cc(Cl)c(Cl)cc2Cl)C(NOC(=O)C(C)C)=N1` was run?
A: Its IC50 is 0.03 µM.

Q: Which IC50 does the source give for `CN(C)CCCNCc1ccc(-c2ccc(F)c(Cl)c2)o1` here?
A: The IC50 was 0.8 µM.

Q: `CCNC(=O)N1CCN(c2nc(-c3ccccc3)nc(COC)c2Cc2ccc(C)cc2)CC1` was tested. Which IC50 did it give?
A: Its IC50 is 0.99 µM.

Q: With `CN1CCC(OC(=O)c2cc3cc(-c4ccccc4)ccc3n2S(=O)(=O)c2ccccc2)CC1` as the compound, how does the IC50 read?
A: Its IC50 is 1.09 µM.

Q: How did the IC50 turn out when `Cc1[nH]nc2ccc(-c3cc(OC[C@@H](N)Cc4ccccc4)cnc3-c3ccc(OCc4cccc(F)c4)cc3)cc12` was run?
A: The IC50 was 0.73 µM.

Q: How did the IC50 turn out when `Cc1cccc2[nH]c(-c3cccc(-c4cccc(NC(=O)c5cnc[nH]5)c4)c3)nc12` was run?
A: The IC50 was 0.26 µM.

Q: With `O=C(CNC1CCCCC1)Nc1cccc(C(=O)Nc2cccc(C(F)(F)F)c2)c1` as the compound, how does the IC50 read?
A: Its IC50 is 0.42 µM.

Q: For `Cc1cc(N)c2cc(NC(=O)c3cccc4ccccc34)ccc2n1`, which IC50 is on record?
A: Its IC50 is 0.84 µM.

Q: For `c1csc(-c2ccc3c(c2)CC(NCc2c[nH]c4cnccc24)C3)c1` (stereo not given), which IC50 is on record?
A: Its IC50 is 0.74 µM.

Q: Which IC50 does the source give for `Cc1[nH]c(C)c(-c2ccc(OCc3ccccc3)cc2)c(=O)c1Br` here?
A: Its IC50 is 0.28 µM.

Q: Which IC50 does the source give for `Cc1cccc(C(=O)Nc2ccnc(N3CCC(N(C)Cc4cccc(C#N)c4)CC3)c2)c1` here?
A: The IC50 was 1.1 µM.

Q: `COc1ccc(CNC2CCN(C)CC2)cc1-c1ccc(S(=O)(=O)NCc2ccccc2)cc1` was tested. Which IC50 did it give?
A: Its IC50 is 0.6 µM.

Q: How did the IC50 turn out when `Cc1cc(-c2cccc(CNC3CCN(C)CC3)c2)ccc1S(=O)(=O)NCc1ccccc1` was run?
A: Its IC50 is 0.82 µM.

Q: For `COc1ccc2c(c1)CCN(CCN1CCC(CNC(=O)c3ccc(-c4ccc(C#N)cc4)cc3)CC1)C2`, which IC50 is on record?
A: The IC50 was 0.62 µM.

Q: `O=C(Cn1c(SCc2cccc(F)c2F)cc(=O)c2ccccc21)N(CCc1cnc[nH]1)Cc1ccc(-c2ccc(C(F)(F)F)cc2)cc1` was tested. Which IC50 did it give?
A: Its IC50 is 0.8 µM.

Q: `O=C(NCCCCN1CCC(c2ccc3c(c2OC(=O)c2ccc(NC(=O)c4ccc(Cl)cc4)cc2)CCCC3)CC1)c1ccc(NC(=O)c2ccc(Cl)cc2)cc1` was tested. Which IC50 did it give?
A: Its IC50 is 0.2 µM.

Q: For `Cc1sc(C)c(CNCCCNc2cc(=O)c3ccccc3[nH]2)c1Br`, which IC50 is on record?
A: Its IC50 is 0.88 µM.

Q: `NC(=O)CCC(NC(=O)CNC(=O)Nc1cccc(C(F)(F)F)c1)C(=O)O` (stereo not given) was tested. Which IC50 did it give?
A: The IC50 was 0.8 µM.

Q: `CCOc1ccc2c(c1)OC(c1ccccc1)(C(F)(F)F)NC2=O` (stereo not given) was tested. Which IC50 did it give?
A: Its IC50 is 0.17 µM.

Q: How did the IC50 turn out when `Cc1c(C)n(C2CCCC2)c2ncnc(OC3CCN(CC(=O)NC4CC4)CC3)c12` was run?
A: Its IC50 is 0.79 µM.

Q: For `N=C1SC(=Cc2cn[nH]c2-c2ccc(F)cc2)C(=O)N1c1nccs1`, which IC50 is on record?
A: The IC50 was 0.22 µM.

Q: With `CCCCCCCc1c(C)[nH]c2ccc(F)cc2c1=O` as the compound, how does the IC50 read?
A: The IC50 was 0.29 µM.

Q: Which IC50 does the source give for `Fc1ccc2nc(-c3ccc(-c4cccc(CN5CCCCC5)c4)cc3)[nH]c2c1` here?
A: Its IC50 is 0.27 µM.

Q: `Nc1nc(F)nc2nc[nH]c12` was tested. Which IC50 did it give?
A: The IC50 was 0.43 µM.

Q: `COc1cc(SC)ccc1C(=O)N1CC(C)CC(C)C1` (stereo not given) was tested. Which IC50 did it give?
A: Its IC50 is 0.35 µM.

Q: How did the IC50 turn out when `N#Cc1ccc(-c2ccc(C(=O)NCC3CCN(CCN4CCC(c5ccc6c(c5OCC(N)=O)CCCC6)CC4)CC3)cc2)cc1` was run?
A: The IC50 was 0.44 µM.

Q: For `Cc1nc(N)nc(N)c1-c1ccc(Br)c(Br)c1`, which IC50 is on record?
A: The IC50 was 0.05 µM.

Q: Which IC50 does the source give for `C[C@@H](N)C#Cc1cc2c(Nc3ccc(OCc4cccc(F)c4)c(Cl)c3)ncnc2s1` here?
A: The IC50 was 1.06 µM.

Q: How did the IC50 turn out when `Cc1nc(-c2cccc(Nc3nccc(NCC(O)c4ccccc4C)n3)c2)cs1` (stereo not given) was run?
A: The IC50 was 0.89 µM.

Q: How did the IC50 turn out when `CCN1CCC(N(Cc2ccc(-c3ccc(C(F)(F)F)cc3)cc2)C(=O)Cn2c(CCc3cccc(F)c3F)cc(=O)c3c2CCCC3)CC1` was run?
A: Its IC50 is 0.76 µM.

Q: For `COc1ccc(N2C(N)=NC(N)=NC2(C)C)cc1`, which IC50 is on record?
A: The IC50 was 0.11 µM.

Q: With `Nc1c2c(nc3ccc(Oc4ccc(Cl)cc4)cc13)CCCC2` as the compound, how does the IC50 read?
A: The IC50 was 0.97 µM.

Q: `COc1cc(CS(C)(=O)=O)ccc1Nc1nccc(-c2c(-c3cccc(NC(=O)c4c(F)cccc4F)c3)nn3ccccc23)n1` was tested. Which IC50 did it give?
A: The IC50 was 0.97 µM.

Q: `CN1CCC(NCc2ccc(-c3cccc(S(=O)(=O)NCCc4ccccn4)c3)cc2)CC1` was tested. Which IC50 did it give?
A: Its IC50 is 0.99 µM.

Q: `COc1ccc(Nc2ncc(OC)c(Nc3ccccc3C(N)=O)n2)cc1N1CCN(C)CC1` was tested. Which IC50 did it give?
A: Its IC50 is 0.74 µM.

Q: With `O=C(Cc1ccc(NC(=O)c2ccc(O)c(-c3ccc(Cl)c(Cl)c3)c2)cc1)NCc1cccc(C(F)(F)F)c1` as the compound, how does the IC50 read?
A: The IC50 was 0.88 µM.

Q: For `Cc1cc(-c2cccc(CNCc3ccccc3)c2)ccc1S(=O)(=O)NCCN1CCCC1`, which IC50 is on record?
A: Its IC50 is 0.73 µM.

Q: With `O=C(NC(Nc1ccc([N+](=O)[O-])cc1)C(Cl)(Cl)Cl)c1ccc(Cl)cc1` (stereo not given) as the compound, how does the IC50 read?
A: The IC50 was 0.78 µM.

Q: For `Cc1cc(-c2ccnc(Nc3cccc(C#N)c3)n2)cc(C)c1O`, which IC50 is on record?
A: Its IC50 is 0.92 µM.

Q: For `NC(=NCc1ccccc1)Nc1cccc(Cc2ccccc2)n1`, which IC50 is on record?
A: The IC50 was 0.86 µM.

Reference: PubChem BioAssay AID2305 (GlaxoSmithKline (GSK), 2010)
